22 compounds from PubChem BioAssay (NCI) can be followed below.

What all share (experiment): NCI-60 cell line screen, 48 h
The subject of assay [1] is CAKI-1 renal.
Assay [2] has as its system DMS 273 small cell lung.
For assay [3], the system named is K-562 leukemia.
In assay [4] the test system is KM12 colon.
Assay [5] relates to LXFL 529 NSCLC.
Assay [6] deals with M14 melanoma.
For assay [7], the system named is MOLT-4 leukemia.
For assay [8], the system named is OVCAR-4 ovarian.
Assay [9] concerns UACC-62 melanoma.
Assay [10] has as its system DU-145 prostate.

Structures are written as SMILES. “And” between values parts separate entries of the source, which are not always exact repeats. Equal values may be shown once.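 Compound exposure: 48 hours, 5 concentrations, 96-well plates. At the GI50, growth is halved. TGI is the concentration that stops growth completely.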 Bounds are passed on as bounds.

In the case of `COc1ccc(C(=O)Nc2ccc(S(=O)(=O)NCC(=O)O)cc2)cc1`, the TGI in [1], in [2], in assay [3], in [4], in assay [5] and in [6] was more than 100 µM throughout. The TGI in assay [7], in [8] and in assay [9] was more than 100 µM throughout.
`C=CC1(c2ccccc2Cl)N/C(=C/OCC)CO1` (configuration not stated): the TGI in assay [1], in [2], in assay [3], in assay [4], in assay [5] and in assay [6] was more than 100 µM in each case. The TGI in assay [7], in [8] and in [9] was more than 100 µM in each case.
Take `N.N.N.N.N.N#N.[Cl-].[Os+7]`: the GI50 in assay [1], in assay [2], in assay [4], in assay [5], in [6] and in assay [8] was more than 100 µM each time. In addition, the GI50 in assay [9] is more than 100 µM. Moreover, the TGI in assay [1], in assay [2], in assay [4], in [5], in assay [6] and in assay [8] was more than 100 µM throughout. This compound registered a TGI in assay [9] of more than 100 µM.
As to `O=C(c1ccccn1)c1nc(-c2ccc(Cl)c(Cl)c2)nc2ccc(Cl)cc12`, the TGI in assay [1], in assay [2], in [3], in [4], in assay [5] and in [6] was more than 100 µM each time. The TGI in [7], in [8] and in [9] was more than 100 µM each time.
Regarding `O=C(O)c1c([N+](=O)[O-])cc(C(F)(F)F)cc1[N+](=O)[O-]`, the TGI in [1], in [2], in assay [3], in assay [4], in assay [5] and in assay [6] was more than 100 µM throughout. For the same compound, the TGI in assay [7] and in [8] was more than 100 µM in each case.
In the case of `C/C=C/C(=O)[C@@H](O)C(C)C`, the TGI in assay [1], in assay [2], in [3], in assay [4], in [5] and in assay [7] was more than 100 µM each time. Besides, the TGI in assay [8] and in assay [9] was more than 100 µM in each case.
Take `Cc1cc2c(=O)cc(-c3ccc(C(F)(F)F)cc3)oc2c(C(=O)O)c1C`: the TGI in assay [1], in assay [2], in assay [3], in assay [4], in assay [5] and in assay [6] was more than 100 µM each time. Further, the TGI in assay [7], in assay [8] and in assay [9] was more than 100 µM throughout.
As to `CN(C)CCNC(=O)c1cccc2ccc(-c3cccnc3)nc12`, the TGI in assay [1] is 32.9 µM; in assay [2], 13.1 µM; in assay [3] it was more than 100 µM; in assay [4], 98.4 µM; in [6] it was 20.7 µM; in assay [7], more than 100 µM. Further, the TGI in assay [8] was 36.9 µM; in assay [9] it was 14.8 µM.
`O=C(N[C@@H]1C=CCC[C@@H]1c1ccccc1)OCc1ccccc1`: the TGI was 45.1 µM in [1]; 32.4 µM in [2]; more than 100 µM in [3]; 33.9 µM in [4]; 49.8 µM in [5]; 34.5 µM in assay [6]. Moreover, the TGI in [7] is 34.6 µM; in assay [8], 42.4 µM; in assay [9] it was 28 µM.
For `O=C(c1ccco1)c1ccccc1C(=O)c1ccco1`, the TGI in [1], in assay [2], in [3], in assay [4], in [5] and in [6] was more than 100 µM in each case. The TGI in assay [7], in [8] and in assay [9] was more than 100 µM throughout.
For the compound `Cc1ccc(/C=N/NS(=O)(=O)c2ccccc2)cc1`, the TGI in assay [1], in [2], in [3], in assay [4], in assay [5] and in assay [6] was more than 100 µM in each case. The TGI in [7], in assay [8] and in assay [9] was more than 100 µM in each case.
For the compound `CCCCNC(=O)OCC(COc1ccccc1OC)OC(=O)NCCCC` (configuration not stated), the TGI in assay [1], in assay [2], in assay [3], in assay [4], in [5] and in [6] was more than 100 µM each time. For the same compound, the TGI in assay [7], in [8] and in assay [9] was more than 100 µM in each case.
As for `CC1(C(=O)NCCN(CCNC(=O)C2(C)CC3(C)CC(C)(C2)C(=O)NC3=O)CCNC(=O)C2(C)CC3(C)CC(C)(C2)C(=O)NC3=O)CC2(C)CC(C)(C1)C(=O)NC2=O` (configuration not stated), the TGI in assay [1], in assay [2], in assay [3], in [4], in [5] and in assay [6] was more than 100 µM each time. Also, the TGI in assay [7], in assay [8] and in [9] was more than 100 µM in each case.
With `CN(C)C(=S)/N=c1\ssc(=S)n1-c1ccccc1`, the TGI was found to be 33.3 µM in assay [1]; 38.3 µM in [2]; 42.6 µM in [3]; 22.7 µM in assay [4]; 25.1 µM in assay [5]; 28.6 µM in assay [6]. Moreover, the TGI in assay [8] was found to be 29.4 µM; in assay [9], 30.6 µM.
Turning to `NC(=S)N/N=C1\C(=O)N(CCc2ccccc2)C(=O)C1C(=O)NCCc1ccccc1` (configuration not stated), the TGI in assay [1], in assay [2], in [3], in [4], in [5] and in [6] was more than 100 µM in each case. Moreover, the TGI in [8] and in [9] was more than 100 µM throughout.
On to `COC1=C(C)C(=O)C2=C(C1=O)C(CO)N1C(C#N)C3CC4C(C1C2N1CCOC41)N3C` (configuration not stated), for which the TGI in assay [2] is 0.0722 µM and 0.0676 µM; in assay [10] it was 14 µM; in assay [3] it was 0.547 µM and 0.0682 µM and 0.123 µM; in assay [8], 0.728 µM and 0.218 µM and 0.332 µM. Also, the GI50 is 0.0438 µM and 0.362 µM and 0.133 µM in [10]; 0.00627 µM and < 0.01 µM in [3]; 0.0043 µM and 0.0305 µM in [4]; 0.128 µM and 0.0409 µM and 0.0516 µM in assay [8].
`NCCn1ccc(NC(c2ccccc2)(c2ccccc2)c2ccccc2)nc1=O`: the TGI in [3] is 44.9 µM; in assay [4] it was 52.3 µM; in [5], 30.3 µM; in assay [7], 44.8 µM; in [8], more than 100 µM.
Consider `CSc1c(S(C)=O)[nH]c2cc(Br)cc(Br)c12` (configuration not stated), for which the TGI in assay [1] turned out to be 74.3 µM; in [2] it was 35.1 µM; in [3], 72.3 µM; in [4], 62.6 µM; in assay [5], 48.8 µM; in assay [6] it was 61.5 µM. Further, the TGI in assay [7] worked out at 61.5 µM; in assay [9], 39.3 µM.
Turning to `COc1cc[c]([Sb]([Br])([CH]=C(C)C)([CH]=C(C)C)[CH]=C(C)C)cc1`, the GI50 in assay [1] was 30.7 µM; in assay [2], 3.3 µM; in [3] it was 4.54 µM; in [4] it was 1.98 µM; in [5], 2.88 µM; in [6], 6.29 µM. Besides, the GI50 in assay [7] is 10.6 µM; in assay [8] it was 5.89 µM; in assay [9] it was 3.41 µM. Moreover, the TGI in [1] is more than 100 µM; in assay [2] it was 23.3 µM; in assay [3], more than 100 µM; in assay [4], 25.6 µM; in assay [5] it was 39.3 µM; in assay [6] it was 42.5 µM. Moreover, the TGI in assay [7], in assay [8] and in assay [9] was more than 100 µM each time.
For the compound `O=C1NC2(CCCC2)/C(=N\O)C12CCCC2`, the TGI in assay [1], in [2], in assay [3], in [4], in assay [5] and in assay [6] was more than 100 µM in each case. The TGI in assay [7], in [8] and in assay [9] was more than 100 µM throughout.
On to `Clc1ccccc1C1N2CCCCC2[C@@H]2c3[nH]c4ccccc4c3CCN12` (some centres not stated), for which the TGI in assay [2] is more than 100 µM; in assay [3], 44.2 µM; in assay [5], more than 100 µM; in [6], 31.3 µM; in [7] it was 82.6 µM; in [8] it was 44.4 µM. In addition, the TGI in assay [9] was determined as 30.2 µM.
With `COc1ccc2nc3ccccc3c(NCCCCCN(CCCl)CCCl)c2c1`, the TGI in [2] is 0.343 µM; in assay [3], 0.502 µM; in assay [4] it was 2.14 µM; in assay [5], 0.81 µM; in assay [6] it was 0.184 µM; in assay [8], 0.771 µM. In assay [9], this compound registered a TGI of 1.8 µM.
